Experimental data published in PubChem BioAssay AID2060605 (Molecular Pharmacology Branch, DTP, NCI, 2025).

Tested on: 947758-054-R-J2-PDC spheroid growth, percent test/control
Test: Anticancer human tumor 947758-054-R-J2-PDC patient-derived colon adenocarcinoma cell line growth inhibition [CLK]
Settings: spheroids with HUVEC and MSC; for IC50: curve of first compound; for viability, T/C: stronger effect = lower value; active = viability on the fitted dose curve at most 10% of control; inactive = the rest
Outline: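 Patient-derived tumor cells grown as complex spheroids with HUVEC endothelial cells and mesenchymal stem cells, treated with drug combinations. Concentrations descend in half-log steps from near clinical Cmax, or from 10 microM if Cmax unknown.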

[1] = second compound 0.0316 µM, first compound 0.0316 µM
[2] = second compound 0.0316 µM, first compound 0.1 µM
[3] = second compound 0.1 µM, first compound 0.0316 µM
[4] = second compound 0.1 µM, first compound 0.1 µM
[5] = second compound 0.316 µM, first compound 0.0316 µM
[6] = second compound 0.316 µM, first compound 0.1 µM
[7] = second compound 1 µM, first compound 0.0316 µM
[8] = second compound 1 µM, first compound 0.1 µM
[9] = second compound 3.16 µM, first compound 0.0316 µM
[10] = second compound 3.16 µM, first compound 0.1 µM
[11] = second compound 10 µM, first compound 0.0316 µM
[12] = second compound 10 µM, first compound 0.1 µM
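Also: spheroids exposed to compounds for one week before readout.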
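For viability, T/C in this document: 100% = DMSO vehicle control wells.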

Cn1ncnc1[C@H]1c2n[nH]c(=O)c3cc(F)cc(c23)N[C@@H]1c1ccc(F)cc1 + CN1CCN(c2cc(C(=O)Nc3cc4cc(-c5cnn(C)c5)ccc4cn3)ccn2)CC1
active: viability, T/C (second compound 0.316 µM, first compound 0.000316 µM) 4.7% | viability, T/C (second compound 0.316 µM, first compound 0.001 µM) 6.84% | viability, T/C (second compound 0.316 µM, first compound 0.00316 µM) 5.57% | viability, T/C (second compound 0.316 µM, first compound 0.01 µM) 4.75% | viability, T/C [5] 5.66% | viability, T/C [6] 4.51% | viability, T/C (second compound 1 µM, first compound 0.000316 µM) 0.15% | viability, T/C (second compound 1 µM, first compound 0.001 µM) 0.15% | viability, T/C (second compound 1 µM, first compound 0.00316 µM) 1.79% | viability, T/C (second compound 1 µM, first compound 0.01 µM) 0.11% | viability, T/C [7] 0.18% | viability, T/C [8] 1.95% | viability, T/C (second compound 3.16 µM, first compound 0.000316 µM) 0.37% | viability, T/C (second compound 3.16 µM, first compound 0.001 µM) 0.17% | viability, T/C (second compound 3.16 µM, first compound 0.00316 µM) 0.17% | viability, T/C (second compound 3.16 µM, first compound 0.01 µM) 0.13% | viability, T/C [9] 0.37% | viability, T/C [10] 1.28% | viability, T/C (second compound 10 µM, first compound 0.000316 µM) 0.25% | viability, T/C (second compound 10 µM, first compound 0.001 µM) 2.6% | viability, T/C (second compound 10 µM, first compound 0.00316 µM) 0.52% | viability, T/C (second compound 10 µM, first compound 0.01 µM) 0.26% | viability, T/C [11] 0.26% | viability, T/C [12] 2.18%
inactive: viability, T/C (second compound 0.0316 µM, first compound 0.000316 µM) 141% | viability, T/C (second compound 0.0316 µM, first compound 0.001 µM) 155% | viability, T/C (second compound 0.0316 µM, first compound 0.00316 µM) 157% | viability, T/C (second compound 0.0316 µM, first compound 0.01 µM) 107% | viability, T/C [1] 133% | viability, T/C [2] 197% | viability, T/C (second compound 0.1 µM, first compound 0.000316 µM) 161% | viability, T/C (second compound 0.1 µM, first compound 0.001 µM) 171% | viability, T/C (second compound 0.1 µM, first compound 0.00316 µM) 149% | viability, T/C (second compound 0.1 µM, first compound 0.01 µM) 134% | viability, T/C [3] 181% | viability, T/C [4] 145%
< 0.316 nM: IC50 (second compound 0.316 µM) | IC50 (second compound 1 µM) | IC50 (second compound 3.16 µM) | IC50 (second compound 10 µM)
> 100 nM: IC50 (second compound 0.0316 µM) | IC50 (second compound 0.1 µM)

O=C(c1cc(Cc2n[nH]c(=O)c3ccccc23)ccc1F)N1CCN(C(=O)C2CC2)CC1 + CN1CCN(c2cc(C(=O)Nc3cc4cc(-c5cnn(C)c5)ccc4cn3)ccn2)CC1
> 10000 nM: IC50 (second compound 0.0316 µM) | IC50 (second compound 0.1 µM)
< 31.6 nM: IC50 (second compound 0.316 µM) | IC50 (second compound 1 µM) | IC50 (second compound 3.16 µM) | IC50 (second compound 10 µM)
active: viability, T/C [5] 3.05% | viability, T/C [6] 3.52% | viability, T/C (second compound 0.316 µM, first compound 0.316 µM) 3.12% | viability, T/C (second compound 0.316 µM, first compound 1 µM) 2.9% | viability, T/C (second compound 0.316 µM, first compound 3.16 µM) 2.97% | viability, T/C (second compound 0.316 µM, first compound 10 µM) 2.81% | viability, T/C [7] 0.13% | viability, T/C [8] 0.13% | viability, T/C (second compound 1 µM, first compound 0.316 µM) 0.15% | viability, T/C (second compound 1 µM, first compound 1 µM) 0.09% | viability, T/C (second compound 1 µM, first compound 3.16 µM) 0.15% | viability, T/C (second compound 1 µM, first compound 10 µM) 0.18% | viability, T/C [9] 0.14% | viability, T/C [10] 0.24% | viability, T/C (second compound 3.16 µM, first compound 0.316 µM) 0.22% | viability, T/C (second compound 3.16 µM, first compound 1 µM) 0.18% | viability, T/C (second compound 3.16 µM, first compound 3.16 µM) 0.73% | viability, T/C (second compound 3.16 µM, first compound 10 µM) 0.27% | viability, T/C [11] 0.31% | viability, T/C [12] 0.36% | viability, T/C (second compound 10 µM, first compound 0.316 µM) 0.95% | viability, T/C (second compound 10 µM, first compound 1 µM) 0.29% | viability, T/C (second compound 10 µM, first compound 3.16 µM) 0.44% | viability, T/C (second compound 10 µM, first compound 10 µM) 0.35%
inactive: viability, T/C [1] 137% | viability, T/C [2] 108% | viability, T/C (second compound 0.0316 µM, first compound 0.316 µM) 127% | viability, T/C (second compound 0.0316 µM, first compound 1 µM) 111% | viability, T/C (second compound 0.0316 µM, first compound 3.16 µM) 139% | viability, T/C (second compound 0.0316 µM, first compound 10 µM) 222% | viability, T/C [3] 173% | viability, T/C [4] 187% | viability, T/C (second compound 0.1 µM, first compound 0.316 µM) 179% | viability, T/C (second compound 0.1 µM, first compound 1 µM) 180% | viability, T/C (second compound 0.1 µM, first compound 3.16 µM) 206% | viability, T/C (second compound 0.1 µM, first compound 10 µM) 119%
